Broadly, the % Inhibition is the percentage by which the read-out fell short of the control. For orientation: inhibition means the drop in the measured response relative to a control, in per cent. For orientation: IC50 means the concentration that gives 50% inhibition.

The values below come from US7108997B2, “Assay for detecting inhibitors of the enzyme myeloperoxidase” (AstraZeneca AB, priority 2001, dated 2006).

Read-outs that look alike come from different tables or passages of the source.

What all share (type): biochemical
Assay [1] addresses T1, purified human myeloperoxidase (Homo sapiens, UniProt P05164).
T1 sequence (P05164 49-745): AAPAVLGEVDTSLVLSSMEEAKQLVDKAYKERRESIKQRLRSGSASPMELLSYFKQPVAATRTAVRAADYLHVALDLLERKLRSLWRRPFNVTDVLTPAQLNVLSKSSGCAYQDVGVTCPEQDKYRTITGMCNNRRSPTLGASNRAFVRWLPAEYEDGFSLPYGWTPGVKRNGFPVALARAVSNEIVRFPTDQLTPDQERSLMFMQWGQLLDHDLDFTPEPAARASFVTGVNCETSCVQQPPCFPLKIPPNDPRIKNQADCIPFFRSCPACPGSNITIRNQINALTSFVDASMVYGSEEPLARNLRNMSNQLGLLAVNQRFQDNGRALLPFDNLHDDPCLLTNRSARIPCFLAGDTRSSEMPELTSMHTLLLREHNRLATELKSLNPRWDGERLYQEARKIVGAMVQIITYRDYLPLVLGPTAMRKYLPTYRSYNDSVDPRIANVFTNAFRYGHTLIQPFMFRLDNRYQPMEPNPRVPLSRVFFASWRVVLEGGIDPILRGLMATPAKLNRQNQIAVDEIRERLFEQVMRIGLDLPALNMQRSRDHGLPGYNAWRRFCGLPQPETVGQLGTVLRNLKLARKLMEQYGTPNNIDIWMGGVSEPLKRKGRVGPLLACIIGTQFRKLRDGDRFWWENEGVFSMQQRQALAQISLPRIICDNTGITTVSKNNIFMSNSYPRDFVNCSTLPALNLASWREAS
The experiment in a line: Taurine chloramine/TMB assay of HOCl production by purified myeloperoxidase with test compounds. The settings on record: for [HOCl]: HOCl generated by myeloperoxidase in presence of 10 μM test compounds (DMSO 0.1%), stopped after five minutes with catalase, None = 56.2 ± 2.1; for % Inhibition: inhibition of HOCl production, 10 μM test compounds (DMSO 0.1%), negative = enhancement. The protocol:
The taurine chloramine assay of the present invention was used to detect HOCl generated by purified human myeloperoxidase. Hydrogen peroxide (100 μM) was added to 20 mM phosphate buffer pH 6.5 containing 20 nM myeloperoxidase, 100 mM NaCl and 10 mM taurine. The mixture was incubated for 15 minutes at room temperature and the reaction stopped by adding catalase (10 μg/ml). Five minutes later developing reagent was added to detect the generated taurine chloramine. The amount of taurine chloramine produced was compared to that formed by adding 100 μM HOCl to the PBST. […] The concentration of stock hydrogen peroxide was determined using E240 43.6 M^−1 cm^−1 and that of stock hypochlorite using E292 350 M^−1 cm^−1.
Hypochlorous acid was generated by myeloperoxidase in the absence or presence of 10 μM test compounds under the conditions described above for the time course experiment. Reactions were initiated by adding hydrogen peroxide and stopped five minutes later by adding catalase.

Assay [2] deals with T2, MPO (Homo sapiens, UniProt P05164).
T2 sequence (P05164 49-745): T1 sequence (P05164 49-745)
Briefly: MPO taurine chloramine/TMB assay with catalase stop (Example 5). The protocol: Assay buffer: 20 mM sodium/potassium phosphate buffer pH 6.5 containing 10 mM taurine and 100 mM NaCl.
Developing reagent: 2 mM TMB, 200 μM KI, 200 mM acetate buffer pH 5.4 with 20% DMF.
To 10 μl of diluted compounds in assay buffer, 40 μl of MPO (final concentration 2.5 nM) was added for 10 minutes at room temperature. Then 50 μl of H2O2 (final concentration 100 μM), or assay buffer alone as a control, were added for 10 minutes at room temperature. […] Plates were mixed and subsequently read at 650 nm.

Assay [3] concerns the target T2, MPO. Briefly: In vitro MPO assay measuring HOCl production (Example 1). Set-up: purchased Planta. The protocol: Here we describe an in vitro MPO assay that was developed to assess inhibition of enzyme activity. Essentially the MPO assay was designed to measure the production of hypochlorous acid (HOCl), which is the key physiological product generated by the enzyme in vivo. An outline of the assay reactions is given:
Compounds were preincubated with the MPO enzyme in buffer for about 15 minutes prior to start of the reaction with H2O2. The whole reaction was carried out at room temperature for 10 minutes in a 96-well plate. […] All test concentrations were done in duplicate with at least two separate determinations (n=2; unless otherwise stated). The inhibitory concentration for a compound is presented as pIC50, which is −log IC50.

Assay [4] has as its target T1, purified human myeloperoxidase. The experiment in a line: Taurine chloramine/TMB assay of HOCl production by purified myeloperoxidase with test compounds. The settings on record: catalase at 20 μg/ml.

Consider `C[S+](C)[O-]` [DMSO, dimethylsulphoxide], for which, in assay [1], the “[HOCl]” value is 52.8 ± 1.2 µM and the “% Inhibition” value is listed as 6%.
Regarding `Nc1ccc(S(=O)(=O)c2ccc(N)cc2)cc1` [Dapsone], in assay [1], the “[HOCl]” value was 1.8 ± 0.1 µM. For the same compound, the inhibition at 10 µM in assay [1] (read-out: % Inhibition) stood at 97%. Further, the figures for the IC50 on MPO [2] (in the absence of tyrosine) and at MPO [2] (in the presence of 8 μM tyrosine) were 257 ± 73 nM and 7120 ± 610 nM, respectively.
`Nc1ccc(S(=O)(=O)Nc2nccs2)cc1` [N-1(2-thiazolyl)-sulfanilamide] had an IC50 against MPO [3] of 1000 nM.
Regarding `N[C@@H](Cc1ccc(O)cc1)C(=O)O` [Tyrosine], the “[HOCl]” value in assay [1] is 107.0 ± 0.5 µM. In assay [1] (read-out: % Inhibition), the inhibition at 10 µM was -90%.
Turning to `Nc1ccc(Br)cc1` [p-Bromoaniline], in assay [1], the inhibition at 10 µM came to 95.6% and the “[HOCl]” value worked out at 2.5 ± 0.1 µM.
Regarding `COc1ccc2[nH]cc(CCO)c2c1` [5-Methoxytryptophol], the IC50 at MPO [3] is 501 nM.
In the case of Catalase, the “inhibition of the formation of HOCl” value in assay [4] is listed as 90%. In assay [1], the “[HOCl]” value worked out at 8.8 ± 1.3 µM and the “% Inhibition” value stood at 84%.
On to `COc1ccc(OC)cc1` [1,4-Dimethoxybenzene], for which, in assay [1], the “[HOCl]” value was found to be 15.2 ± 1.0 µM. In addition, the inhibition at 10 µM in assay [1] (read-out: % Inhibition) was 73%.
